Test results from US20120003661A1, “METHODS AND DEVICES FOR THE SELECTIVE DETECTION OF MICROORGANISMS” (C3 JIAN, INC., priority 2010, published 2012).
“Also recorded” adds a separate entry of the source. Read-outs that look alike come from different tables or passages of the source.

Tested on: bacteria, fungi, and/or yeasts
Type: binding
[1] = microorganism(s) the targeting peptide binds, as listed in Table 2
[2] = microorganism(s) listed as target(s) of the targeting peptide, wrapped target lists given cell by cell
[3] = microorganism(s) that the targeting peptide binds, as listed in Table 2

Row | Substance | Target(s) [1] | Target(s) [2] | also measured
1 | 1T-115 (LLIERFSNHH) | A. naeslundii, F. nucleatum, P. gingivalis,; also recorded: S. epidermidis, S. gordonii,; also recorded: S. mitis, S. mutans, S. oralis,; also recorded: S. salivarious, S. sanguinis |  | 
2 | 1T-91 (TSVRPGAAGAAVPAGAAGAAGAGWRWP) | S. mitis, S. mutans, S. oralis, S. sanguinis |  | 
3 | PF-138 (AVHHSLLFR) |  | S. epidermidis, M. luteus, P. mirabilis,; also recorded: E. coli, C. albicans,; also recorded: MRSA, C. jeikeium, C. jejuni | 
4 | PF-U (TFFRLFNRSFTQALGK) |  |  | Target(s) [3]: S. mutans
5 | PF-069 (FDPVPLKKDKSASKHSHKHNH) |  | E. faecalis, C. jejuni | 
6 | 1T-37 (YIVGALVILAVAGLIYSMLRKA) | S. mutans, S. aereus, S. epidermidis,; also recorded: C. jeikeium, C. xerosis,; also recorded: C. striatum, P. aeruginosa |  | 
7 | 1T-160 (AQYKYINKLLN) | A. naeslundii, F. nucleatum, P. gingivalis,; also recorded: T. denticola, S. gordonii,; also recorded: S. mitis, S. mutans, S. oralis,; also recorded: S. salivarious, S. sanguinis |  | 
8 | 1T-221 (DIGRIIGKKGRTITAIRSIVYSVPTQGKKVRLVIDEK) | A. naeslundii, F. nucleatum, P. gingivalis,; also recorded: S. epidermidis, S. gordonii,; also recorded: S. mitis, S. mutans, S. oralis,; also recorded: S. salivarious, S. sanguinis |  | 
9 | 1T-109 (VTTNVRQGAGS) | A. naeslundii, S. epidermidis, S. gordonii,; also recorded: S. mitis, S. mutans, S. oralis,; also recorded: S. salivarious, S. sanguinis |  | 
10 | 1T-223 (NQKMEINSMTSEKEKMLAGHFHNEANFAVIFKYSLFYNFF) | A. naeslundii, F. nucleatum, P. gingivalis,; also recorded: S. epidermidis, S. gordonii,; also recorded: S. mitis, S. mutans, S. oralis,; also recorded: S. salivarious, S. sanguinis |  | 
11 | 1T-131 (DEVWKMLGI) | A. naeslundii, F. nucleatum, P. gingivalis,; also recorded: T. denticola, S. gordonii,; also recorded: S. mitis, S. mutans, S. oralis,; also recorded: S. salivarious, S. sanguinis |  | 
12 | 1T-286 (LGFFNNKADLVKADTERDNRMSSLKIKDL) |  | S. sanguinis | 
13 | PF-137 (VLGKGHDLLDVGKTALKSRVFAWLGGS) |  | S. epidermidis, P. mirabilis, S. pneumoniae,; also recorded: C. jeikeium, C. jejuni | 
14 | PF-036 (ILNRLSRIVSNEVTSLIYSLK) |  | S. epidermidis, M. luteus, P. mirabilis,; also recorded: E. coli, C. albicans,; also recorded: MRSA, S. pneumoniae, C. jejuni | 
15 | PF-024 (DLRKAK) |  | C. albicans hyphae; also recorded: M. luteus, C. albicans, MRSA, E. faecalis,; also recorded: C. jeikeium | 
16 | 1T-299 (SMLTSFLRSKNTRSLKMYKDVHF) |  | A. naeslundii, F. nucleatum, S. epidermidis,; also recorded: S. gordonii, S. mitis,; also recorded: S. mutans, S. oralis, S. salivarious,; also recorded: S. sanguinis | 
17 | 1T-85 (VMASLTWRMRAASASLPTHSRTDA) | A. naeslundii, F. nucleatum, P. gingivalis,; also recorded: S. epidermidis, S. gordonii,; also recorded: S. mitis, S. mutans, S. oralis,; also recorded: S. salivarious, S. sanguinis |  | 
18 | 1T-104 (RAVAAHLQGRHHGHQVRRQRHGQR) | S. mitis |  | 
19 | 1T-252 (MKKNLKRFYALVLGFIIGCLFVSILIFIGY) |  | F. nucleatum, S. sanguinis | 
20 | PF-012 (WRGPNTEAGGKSANNIVQVGGAPT) |  | S. epidermidis, M. luteus, P. mirabilis,; also recorded: E. coli, P. aeruginosa,; also recorded: MRSA, S. pneumoniae, C. jeikeium,; also recorded: C. jejuni | 
21 | PF-144 (RSGQPVGRPSRRAWLR) |  | S. epidermidis, M. luteus, E. coli,; also recorded: C. albicans, MRSA, S. pneumoniae,; also recorded: E. faecalis, C. jeikeium | 
22 | PF-C064 (DEEALEMGANLYAQFAIDFLNSKK) |  |  | Target(s) [3]: A. naeslundii, F. nucleatum, P. gingivalis,; also recorded: S. mutans, T. denticola

Row | Substance | Target(s) [1] | Target(s) [2] | also measured
23 | 1T-301 (SKLPRVLDASLKL) |  | F. nucleatum, S. gordonii, S. sanguinis | 
24 | PF-798 (ALHSKGIKVMADWVPDQMYA) |  |  | Target(s) [3]: S. mutans
25 | PF-C259 (AEIQPHCLSVL) |  |  | Target(s) [3]: F. nucleatum, S. mutans
26 | 1T-141 (KKFIILLFILVQGLIFSATKTLSDIIAL) | F. nucleatum, P. gingivalis, S. epidermidis,; also recorded: S. gordonii, S. mitis,; also recorded: S. mutans, S. oralis, S. sanguinis |  | 
27 | 1T-61 (HATLLPAVREAISRQLLPALVPRG) | P. aeruginosa |  | 
28 | 1T-15 (DVILRVEAQ) | S. mutans | yeast and hyphal forms | 
29 | 1T-31 (NATGTDIGEVTLTLGRFS) | S. mutans, P. aeruginosa |  | 
30 | PF-C135 (KNTHAYLRVLRLSSLILSYQASVYPLFAYLCQQKDY) |  |  | Target(s) [3]: A. naeslundii, F. nucleatum, P. gingivalis,; also recorded: S. mutans
31 | 1T-295 (KYKLKKIIL) |  | S. mitis, S. salivarious, S. sanguinis | 
32 | 1T-144 (IIELHPKSWTQDWRCSFL) | A. naeslundii, F. nucleatum, P. gingivalis,; also recorded: T. denticola, S. gordonii,; also recorded: S. mitis, S. mutans, S. oralis,; also recorded: S. salivarious, S. sanguinis |  | 
33 | 1T-275 (QVLKNFSISRRYKINNPFFKILLFIQLRTL) |  | A. naeslundii, F. nucleatum, P. gingivalis,; also recorded: T. denticola, S. epidermidis,; also recorded: S. gordonii, S. mitis,; also recorded: S. mutans, S. oralis, S. salivarious,; also recorded: S. sanguinis | 
34 | PF-169 (APGSAADSPRSRADD) |  | S. epidermidis, E. coli, C. albicans,; also recorded: E. faecalis, C. jeikeium | 
35 | 1T-12 (FGNIFKGLKDVIETIVKWTAAK) | C. xerosis, C. striatum, S. epidermidis,; also recorded: S. mutans |  | 
36 | 1T-161 (NKVLQVEVMWDGSVVGRPAGVISIKSSKKG) | A. naeslundii, F. nucleatum, P. gingivalis,; also recorded: S. epidermidis, S. gordonii,; also recorded: S. mitis, S. mutans, S. oralis,; also recorded: S. salivarious, S. sanguinis |  | 
37 | 1T-284 (FQYYFSLKRV) |  | A. naeslundii, F. nucleatum, P. gingivalis,; also recorded: S. gordonii, S. mitis,; also recorded: S. mutans, S. oralis, S. salivarious,; also recorded: S. sanguinis | 
38 | 1T-69 (ILSQEADRKKLF) | S. mutans, P. aeruginosa |  | 
39 | 1T-296 (EYSQQSFKAKPCSERGVLSP) |  | A. naeslundii, F. nucleatum, P. gingivalis,; also recorded: S. gordonii, S. mitis,; also recorded: S. mutans, S. oralis, S. salivarious,; also recorded: S. sanguinis | 
40 | 1T-26 (LTILPTTFFAIIVPILAVAFIAYSGFKIKGIVEHKDQW) | S. mutans, S. aureus, S. epidermidis,; also recorded: C. jeikeium, C. xerosis,; also recorded: C. striatum, P. aeruginosa |  | 
41 | PF-001 (MNNWIIVAQLSVTVINEIIDIMKEKQKGGK) |  | S. epidermidis, M. luteus, P. mirabilis,; also recorded: E. coli, P. aeruginosa,; also recorded: C. albicans, MRSA, E. faecalis,; also recorded: C. jeikeium | 
42 | 1T-177 (GTNVPTQILGYSREERFDYEPAPEQR) | P. gingivalis, S. gordonii, S. mitis,; also recorded: S. mutans, S. oralis, S. salivarious,; also recorded: S. sanguinis |  | 
43 | 1T-302 (IIIILPKIYLVCKTV) |  | A. naeslundii, P. gingivalis, S. epidermidis,; also recorded: S. gordonii, S. mitis,; also recorded: S. mutans, S. oralis, S. salivarious,; also recorded: S. sanguinis | 
